Target: Intestinal-type alkaline phosphatase (Mus musculus, UniProt P24822)
Assay: PubChem AID 488785

Chain of Intestinal-type alkaline phosphatase (P24822 whole entry, looked up): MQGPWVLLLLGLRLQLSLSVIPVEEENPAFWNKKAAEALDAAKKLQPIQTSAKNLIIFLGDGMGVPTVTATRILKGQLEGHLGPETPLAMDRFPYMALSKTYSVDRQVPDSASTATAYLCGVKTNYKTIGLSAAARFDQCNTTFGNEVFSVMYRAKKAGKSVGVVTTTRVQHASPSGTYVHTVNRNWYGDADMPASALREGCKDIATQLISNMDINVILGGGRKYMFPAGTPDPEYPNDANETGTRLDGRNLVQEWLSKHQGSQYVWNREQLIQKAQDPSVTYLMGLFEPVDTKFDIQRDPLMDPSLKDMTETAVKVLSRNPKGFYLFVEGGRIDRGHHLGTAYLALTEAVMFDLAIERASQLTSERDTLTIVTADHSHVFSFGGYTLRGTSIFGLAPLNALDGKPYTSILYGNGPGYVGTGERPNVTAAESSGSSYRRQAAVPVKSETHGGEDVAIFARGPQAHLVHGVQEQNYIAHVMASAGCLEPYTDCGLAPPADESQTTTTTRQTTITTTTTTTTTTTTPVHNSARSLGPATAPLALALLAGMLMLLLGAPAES

SMILES: Cc1ccc(Cl)c2c1NC(=O)/C2=C1/NC(=S)NC1=O
- IC50: 0.206 µM

SMILES: Nc1nnc(CC(=O)N/N=C/C2C=C([N+](=O)[O-])C=C(Br)C2=O)s1 (stereo unspecified) [2-(5-azanyl-1,3,4-thiadiazol-2-yl)-N'-[(E)-(5-bromanyl-3-nitro-6-oxidanylidene-cyclohexa-2,4-dien-1-ylidene)methyl]ethanehydrazide]
- IC50: 2.79 µM

SMILES: NS(=O)(=O)c1cc(C(=O)NNC2=c3ccccc3=NC2=O)ccc1Cl [2-chloro-5-[[(2-oxoindol-3-yl)amino]carbamoyl]benzenesulfonamide]
- IC50: 42.4 µM

SMILES: COc1cc(C=Nn2c(O)csc2=S)ccc1O [3-[[(E)-(3-methoxy-4-oxidanylidene-cyclohexa-2,5-dien-1-ylidene)methyl]amino]-2-sulfanylidene-1,3-thiazolidin-4-one]
- IC50: 2.2 µM

SMILES: Oc1ccc(C=Nn2c(O)csc2=S)c(O)c1O [3-[[(E)-[2,3-bis(oxidanyl)-4-oxidanylidene-cyclohexa-2,5-dien-1-ylidene]methyl]amino]-2-sulfanylidene-1,3-thiazolidin-4-one]
- IC50: 4.15 µM

SMILES: CC1NON=C1C(=O)NN=CC1=CC(=O)C(=O)C=C1 (stereo unspecified) [4-Methyl-furazan-3-carboxylic acid (3,4-dihydroxy-benzylidene)-hydrazide]
- IC50: 9.92 µM

SMILES: Oc1ccc(CN=Nc2cc(N3CCCC3)nc(N3CCCC3)n2)cc1O [(4Z)-4-[[2-(2,6-dipyrrolidin-1-ylpyrimidin-4-yl)hydrazinyl]methylidene]-2-hydroxycyclohexa-2,5-dien-1-one]
- IC50: 1.51 µM

SMILES: Cc1ccc(/C=C2\SC(=S)N(/N=C/C3C=C([N+](=O)[O-])C=CC3=O)C2=O)o1 (stereo unspecified) [(5Z)-5-[(5-methylfuran-2-yl)methylidene]-3-[[(E)-(3-nitro-6-oxocyclohexa-2,4-dien-1-ylidene)methyl]amino]-2-sulfanylidene-1,3-thiazolidin-4-one]
- IC50: 61.9 µM

SMILES: C#CCOCCOCCOCCNc1nc(N2CCN(C(=O)CCCCCCCCCCNC(=O)[C@H]([C@@H](C)CC)n3cc(CCCCN=C(N)N)nn3)CC2)nc(N2CCN(C(=O)CCCCCCCCCCNC(=O)[C@@H]([C@H](C)O)n3cc(C)nn3)CC2)n1 [GT-RI]
- IC50: 0.366 µM

SMILES: C#CCOCCOCCOCCNc1nc(N2CCN(C(=O)CCCCCCCCCCNC(=O)Cn3cc(CCCCCN)nn3)CC2)nc(N2CCN(C(=O)CCCCCCCCCCNC(=O)Cn3cc(C[C@@H](C)O)nn3)CC2)n1 [KG-TG]
- IC50: 6.31 µM

SMILES: C#CCOCCOCCOCCNc1nc(N2CCN(C(=O)CCCCCCCCCCNC(=O)[C@@H](CCC(=O)O)n3cc(CCCCCN)nn3)CC2)nc(N2CCN(C(=O)CCCCCCCCCCNC(=O)[C@H]([C@@H](C)CC)n3cc(CCCCCN)nn3)CC2)n1 [KI-KE]
- IC50: 17.1 µM

SMILES: O=C1C=CC(C=NNC(=S)Nc2ccccc2[N+](=O)[O-])C=C1O (stereo unspecified) [MLS000417596]
- IC50: 0.216 µM

SMILES: C#CCOCCOCCOCCNc1nc(N2CCN(C(=O)CCCCCCCCCCNC(=O)[C@@H](CCSC)n3cc(CCO)nn3)CC2)nc(N2CCN(C(=O)CCCCCCCCCCNC(=O)[C@H]([C@@H](C)CC)n3cc(CCCCCN)nn3)CC2)n1 [MLS002153719]
- IC50: 5.89 µM

SMILES: O=C(Nn1c(O)csc1=S)C(=O)Nn1c(O)csc1=S [SMR000349781]
- IC50: 7.75 µM

SMILES: O=C1C=CC(/C=C/c2nc(O)c([N+](=O)[O-])c(=O)[nH]2)C=C1O (stereo unspecified) [SMR000524347]
- IC50: 1.04 µM

SMILES: COc1cc(C=CC(=O)CC(=O)C=Cc2ccc(O)cc2)ccc1O [demethoxycurcumin]
- IC50: 8.38 µM
